Patent publication US20120329787A1, “FUNGICIDAL PYRANONES AND OXAZINONES” (E.I. DU PONT DE NEMOURS AND COMPANY, priority 2011, published 2012)
Marks after values point to notes of the source that are not given here.

Legend:
Type in all cases: in vivo
Rhizoctonia solani = assay: Test D: turf brown patch, spray on creeping bent grass seedlings the day before inoculation; conditions: 200 ppm test suspension
From the text: General protocol for preparing test suspensions for Tests A-I: the test compounds were first dissolved in acetone in an amount equal to 3% of the final volume and then suspended at the desired concentration (in ppm) in acetone and purified water (50/50 mix by volume) containing 250 ppm of the surfactant Trem® 014 (polyhydric alcohol esters). The resulting test suspensions were then used in Tests A-I. Spraying a 200 ppm test suspension to the point of run-off on the test plants was the equivalent of a rate of 500 g/ha. […] (An asterisk “*” next to the rating value indicates a 40 ppm test suspension was used.) The test suspension was sprayed to the point of run-off on creeping bent grass (Agrostis sp.) seedlings. The following day, the seedlings were inoculated with a bran and mycelial slurry of Rhizoctonia solani (the causal agent of turf brown patch) and incubated in a saturated atmosphere at 27° C. for 48 h, and then moved to a growth chamber at 27° C. for 3 days, after which time disease ratings were made. […] A dash (-) indicates no test results. All results are for 200 ppm except where followed by an asterisk “*”, which indicates a 40 ppm.

Phytophthora infestans = conditions: 200 ppm test suspension; tomato seedlings
[1] = test system: Erysiphe graminis f. sp. tritici; assay: Test I: wheat powdery mildew, spray on wheat seedlings the day before inoculation; conditions: 200 ppm test suspension
Procedure, shortened: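 Wheat seedlings sprayed to run-off with compound at 200 ppm (40 ppm where marked; 200 ppm ≈ 500 g/ha) in acetone/water with 250 ppm surfactant. Inoculated next day with E. graminis spore dust; visual disease rating after 7 days at 20° C.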

Botrytis cinerea = assay: Test A: tomato Botrytis, spray on tomato seedlings the day before inoculation; conditions: 200 ppm test suspension
Procedure, shortened: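 Tomato seedlings sprayed to run-off with compound suspension (200 ppm, ≈500 g/ha; some at 40 ppm) in acetone/water with 250 ppm Trem 014, inoculated next day with Botrytis cinerea spores. Held 48 h saturated at 20 °C, then 3 days at 24 °C; disease rated visually.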

[2] = test system: Puccinia recondita f. sp. tritici; assay: Test H: wheat leaf rust, spray on wheat seedlings the day before inoculation; conditions: 200 ppm test suspension, sprayed before inoculation
Procedure, shortened: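 Wheat seedlings sprayed to run-off with compound suspensions (acetone/water with surfactant; 200 ppm ≈ 500 g/ha, or 40 ppm), inoculated next day with rust spores. Plants kept 24 h in saturated atmosphere at 20 °C, then 6 days in a 20 °C growth chamber before visual disease rating.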

Septoria nodorum = assay: Test E: Septoria glume blotch, spray on wheat seedlings the day before inoculation; conditions: 200 ppm test suspension
Procedure, shortened: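 Compounds in acetone/water (50/50) with 250 ppm Trem 014 surfactant, sprayed to run-off on wheat seedlings the day before Septoria nodorum inoculation. Tested at 200 ppm (equivalent to 500 g/ha) unless marked 40 ppm.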

Alternaria solani = assay: Test B: tomato early blight, spray on tomato seedlings the day before inoculation
Procedure, shortened: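 Tomato seedlings sprayed to run-off with 200 ppm suspension (40 ppm where asterisked), inoculated next day with Alternaria solani spores. Kept 48 h at 27 °C in saturated atmosphere, then 5 days at 20 °C before visual disease rating.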

Septoria tritici = assay: Test F: wheat leaf blotch, spray on wheat seedlings the day before inoculation; conditions: 200 ppm test suspension
Procedure, shortened: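 Wheat seedlings sprayed to run-off with 200 ppm (≈500 g/ha) or 40 ppm suspension in acetone/water with 250 ppm Trem 014. Next day inoculated with Septoria tritici spores, held 48 h saturated at 24° C, then 19 days at 20° C before visual disease rating.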

[3] = test system: Puccinia recondita f. sp. tritici; assay: Test G: wheat leaf rust, spray on wheat seedlings after inoculation (curative); conditions: 200 ppm test suspension, sprayed after inoculation
Procedure, shortened: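 Curative test: wheat seedlings inoculated with P. recondita spores, held 24 h saturated at 20 °C then 2 days at 20 °C, then sprayed to run-off with compound suspension (200 ppm ≈ 500 g/ha; asterisk = 40 ppm) in acetone/water with 250 ppm surfactant. Visual disease rating after 4 further days at 20 °C.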

Question: How did the “Test D rating (100 = 100% disease control, 0 = no disease control)” value (Rhizoctonia solani) turn out when `Cc1noc(=O)c(-c2c(F)ccc(F)c2F)c1-c1ccc(Cl)cc1` [Compound 6] was run?
Answer: The value was 0%.

Question: What about the “Test C rating (100 = 100% disease control, 0 = no disease control)” value (Phytophthora infestans) of the same molecule?
Answer: The value was 0%.

Question: What about the “Test I rating (100 = 100% disease control, 0 = no disease control)” value [1] of the same molecule?
Answer: Its value is 96%.

Question: What about the “Test A rating (100 = 100% disease control, 0 = no disease control)” value (Botrytis cinerea) of the same molecule?
Answer: Its value is 99%.

Question: What about the “Test H rating (100 = 100% disease control, 0 = no disease control)” value [2] of the same molecule?
Answer: The value was 41%.

Question: And the “Test E rating (100 = 100% disease control, 0 = no disease control)” value (Septoria nodorum)?
Answer: Its value is 0%.

Question: And the “Test B rating (100 = 100% disease control, 0 = no disease control)” value (Alternaria solani; 200 ppm test suspension)?
Answer: The value was 99%.

Question: Which results are given for `Cc1noc(=O)c(-c2c(F)cccc2F)c1-c1ccc(Cl)cc1` [Compound 7]?
Answer: Test D rating (100 = 100% disease control, 0 = no disease control) (Rhizoctonia solani): 75%; Test C rating (100 = 100% disease control, 0 = no disease control) (Phytophthora infestans): 0%; Test I rating (100 = 100% disease control, 0 = no disease control) [1]: 100%; Test A rating (100 = 100% disease control, 0 = no disease control) (Botrytis cinerea): 100%; Test H rating (100 = 100% disease control, 0 = no disease control) [2]: 99%; Test E rating (100 = 100% disease control, 0 = no disease control) (Septoria nodorum): 0%; Test B rating (100 = 100% disease control, 0 = no disease control) (Alternaria solani; 200 ppm test suspension): 100%

Question: With `Cc1noc(=O)c(-c2c(F)cc(F)cc2F)c1-c1ccc(C(F)(F)F)cc1` [Compound 12] as the molecule, how does the “Test D rating (100 = 100% disease control, 0 = no disease control)” value (Rhizoctonia solani) read?
Answer: The value was 0%.

Question: And the “Test C rating (100 = 100% disease control, 0 = no disease control)” value (Phytophthora infestans)?
Answer: Its value is 0%.

Question: And the “Test I rating (100 = 100% disease control, 0 = no disease control)” value [1]?
Answer: Its value is 98%.

Question: And the “Test A rating (100 = 100% disease control, 0 = no disease control)” value (Botrytis cinerea)?
Answer: Its value is 0%.

Question: What about the “Test H rating (100 = 100% disease control, 0 = no disease control)” value [2] of the same molecule?
Answer: The value was 0%.

Question: What about the “Test E rating (100 = 100% disease control, 0 = no disease control)” value (Septoria nodorum) of the same molecule?
Answer: The value was 0%.

Question: What about the “Test B rating (100 = 100% disease control, 0 = no disease control)” value (Alternaria solani; 40 ppm test suspension (asterisk)) of the same molecule?
Answer: Its value is 99* %.

Question: Which “Test D rating (100 = 100% disease control, 0 = no disease control)” value (Rhizoctonia solani) does the source give for `Cc1noc(=O)c(-c2c(F)cc(F)cc2F)c1-c1cccc(F)c1` [Compound 5] here?
Answer: The value was 16%.

Question: What about the “Test C rating (100 = 100% disease control, 0 = no disease control)” value (Phytophthora infestans) of the same molecule?
Answer: Its value is 0%.

Question: What about the “Test I rating (100 = 100% disease control, 0 = no disease control)” value [1] of the same molecule?
Answer: The value was 20%.

Question: And the “Test A rating (100 = 100% disease control, 0 = no disease control)” value (Botrytis cinerea)?
Answer: The value was 0%.

Question: And the “Test H rating (100 = 100% disease control, 0 = no disease control)” value [2]?
Answer: Its value is 0%.

Question: What about the “Test E rating (100 = 100% disease control, 0 = no disease control)” value (Septoria nodorum) of the same molecule?
Answer: Its value is 0%.

Question: What about the “Test B rating (100 = 100% disease control, 0 = no disease control)” value (Alternaria solani; 200 ppm test suspension) of the same molecule?
Answer: The value was 54%.

Question: With `Cc1noc(=O)c(-c2c(F)cccc2F)c1-c1ccc(Br)cc1` [Compound 15] as the molecule, how does the “Test D rating (100 = 100% disease control, 0 = no disease control)” value (Rhizoctonia solani) read?
Answer: Its value is 0%.

Question: What about the “Test C rating (100 = 100% disease control, 0 = no disease control)” value (Phytophthora infestans) of the same molecule?
Answer: Its value is 0%.

Question: What about the “Test I rating (100 = 100% disease control, 0 = no disease control)” value [1] of the same molecule?
Answer: Its value is 98%.

Question: And the “Test A rating (100 = 100% disease control, 0 = no disease control)” value (Botrytis cinerea)?
Answer: Its value is 0%.

Question: What about the “Test H rating (100 = 100% disease control, 0 = no disease control)” value [2] of the same molecule?
Answer: Its value is 91%.

Question: What about the “Test E rating (100 = 100% disease control, 0 = no disease control)” value (Septoria nodorum) of the same molecule?
Answer: The value was 0%.

Question: And the “Test B rating (100 = 100% disease control, 0 = no disease control)” value (Alternaria solani; 200 ppm test suspension)?
Answer: Its value is 96%.

Question: With `Cc1noc(=O)c(-c2c(F)cccc2Cl)c1-c1ccc(Cl)cc1` [Compound 8] as the molecule, how does the “Test D rating (100 = 100% disease control, 0 = no disease control)” value (Rhizoctonia solani) read?
Answer: Its value is 52%.

Question: What about the “Test C rating (100 = 100% disease control, 0 = no disease control)” value (Phytophthora infestans) of the same molecule?
Answer: The value was 0%.

Question: What about the “Test I rating (100 = 100% disease control, 0 = no disease control)” value [1] of the same molecule?
Answer: Its value is 99%.

Question: What about the “Test A rating (100 = 100% disease control, 0 = no disease control)” value (Botrytis cinerea) of the same molecule?
Answer: Its value is 100%.

Question: And the “Test H rating (100 = 100% disease control, 0 = no disease control)” value [2]?
Answer: The value was 98%.

Question: What about the “Test E rating (100 = 100% disease control, 0 = no disease control)” value (Septoria nodorum) of the same molecule?
Answer: The value was 0%.

Question: What about the “Test B rating (100 = 100% disease control, 0 = no disease control)” value (Alternaria solani; 200 ppm test suspension) of the same molecule?
Answer: The value was 99%.

Question: Which results are given for `COc1cc(OC)cc(-c2cc(=O)oc(C)c2-c2ccc(F)cc2Cl)c1` [Compound 56]?
Answer: Test F rating (100 = 100% disease control, 0 = no disease control) (Septoria tritici): 100%; Test G rating (100 = 100% disease control, 0 = no disease control) [3]: 100%; Test I rating (100 = 100% disease control, 0 = no disease control) [1]: 100%; Test A rating (100 = 100% disease control, 0 = no disease control) (Botrytis cinerea): 94%; Test H rating (100 = 100% disease control, 0 = no disease control) [2]: 100%; Test E rating (100 = 100% disease control, 0 = no disease control) (Septoria nodorum): 99%; Test B rating (100 = 100% disease control, 0 = no disease control) (Alternaria solani; 200 ppm test suspension): 99%

Question: Which “Test F rating (100 = 100% disease control, 0 = no disease control)” value (Septoria tritici) does the source give for `COc1cccc(-c2c(-c3ccc(F)cc3F)c(C)oc(=O)c2-c2ccccc2)c1` [Compound 29] here?
Answer: Its value is 99%.

Question: And the “Test G rating (100 = 100% disease control, 0 = no disease control)” value [3]?
Answer: The value was 32%.

Question: And the “Test I rating (100 = 100% disease control, 0 = no disease control)” value [1]?
Answer: The value was 55%.

Question: And the “Test A rating (100 = 100% disease control, 0 = no disease control)” value (Botrytis cinerea)?
Answer: The value was 99%.

Question: What about the “Test H rating (100 = 100% disease control, 0 = no disease control)” value [2] of the same molecule?
Answer: The value was 100%.

Question: And the “Test E rating (100 = 100% disease control, 0 = no disease control)” value (Septoria nodorum)?
Answer: The value was 64%.

Question: And the “Test B rating (100 = 100% disease control, 0 = no disease control)” value (Alternaria solani; 200 ppm test suspension)?
Answer: The value was 93%.

Question: What does the source list for `COc1cc(OC)cc(-c2c(-c3ccc(F)cc3F)c(C)oc(=O)c2C)c1` [Compound 48, 5-(2,4-difluorophenyl)-4-(3,5-dimethoxyphenyl)-3,6-dimethyl-2H-pyran-2-one]?
Answer: pest or weed control at 200 ppm (Septoria tritici; Zymoseptoria tritici, 504 h, read-out: Test F rating (100 = 100% disease control, 0 = no disease control)): 100%; pest or weed control at 200 ppm ([3]; Puccinia recondita, 96 h, read-out: Test G rating (100 = 100% disease control, 0 = no disease control)): 100%; pest or weed control at 200 ppm ([1]; Blumeria graminis, 168 h, read-out: Test I rating (100 = 100% disease control, 0 = no disease control)): 100%; pest or weed control at 200 ppm (Botrytis cinerea; Botrytis cinerea, 120 h, read-out: Test A rating (100 = 100% disease control, 0 = no disease control)): 100%; pest or weed control at 200 ppm ([2]; Puccinia recondita, 168 h, read-out: Test H rating (100 = 100% disease control, 0 = no disease control)): 100%; pest or weed control at 200 ppm (Septoria nodorum; Parastagonospora nodorum, 264 h, read-out: Test E rating (100 = 100% disease control, 0 = no disease control)): 99%; pest or weed control at 200 ppm (Alternaria solani; Alternaria solani, 168 h, 200 ppm test suspension, read-out: Test B rating (100 = 100% disease control, 0 = no disease control)): 97%
